“And” between values parts separate entries of the source, which are not always exact repeats. Identical values can stand only once.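 Cultured in 96-well plates, cells were exposed to test compound for 48 hours across five concentrations. GI50 marks 50% less growth. TGI: total growth inhibition.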
What was measured:
Test in all cases: DTP human tumour cell line panel, 48 h
HS 578T breast = tested on: HS 578T breast
HCT-116 colon = tested on: HCT-116 colon
NCI-H226 lung = tested on: NCI-H226 lung
MALME-3M melanoma = tested on: MALME-3M melanoma
UACC-257 melanoma = tested on: UACC-257 melanoma
M14 melanoma = tested on: M14 melanoma
HCC-2998 colon = tested on: HCC-2998 colon
SK-MEL-28 melanoma = tested on: SK-MEL-28 melanoma
RXF 393 renal = tested on: RXF 393 renal
HCT-15 colon = tested on: HCT-15 colon

| SMILES | TGI (HS 578T breast) [µM] | TGI (HCT-116 colon) | GI50 (NCI-H226 lung) [µM] | TGI (NCI-H226 lung) | TGI (MALME-3M melanoma) [µM] | GI50 (UACC-257 melanoma) [µM] | TGI (UACC-257 melanoma) | GI50 (M14 melanoma) [µM] | TGI (M14 melanoma) | TGI (HCC-2998 colon) [µM] | GI50 (SK-MEL-28 melanoma) [µM] | TGI (SK-MEL-28 melanoma) | GI50 (RXF 393 renal) [µM] | TGI (RXF 393 renal) | GI50 (HCT-15 colon) [µM] | TGI (HCT-15 colon) | GI50 (HS 578T breast) [µM] | GI50 (HCT-116 colon) [µM] | GI50 (MALME-3M melanoma) [µM] | GI50 (HCC-2998 colon) [µM] |
| --- | --- | --- | --- | --- | --- | --- | --- | --- | --- | --- | --- | --- | --- | --- | --- | --- | --- | --- | --- | --- |
| COc1ccc2nc3cc([N+](=O)[O-])ccc3c(NNc3ccccc3)c2c1 | > 100 | 28.2 µM and 28.6 µM | 1.63 | 18.1 µM and 7.66 µM | 43.4 | 17.3 | 51.5 µM and > 100 µM | 24.2 | 75.2 µM and > 100 µM | 46.3 | 15.3 | 34.9 µM and > 100 µM | 11.8 | 27.6 µM and > 100 µM | 12 | > 100 µM and 67.2 µM |  |  |  |  |
| COc1cc(/C=C/C(=O)/C=C/c2cc3ccc(Cl)cc3n(Cc3ccccc3)c2=O)ccc1O | 62 | 2.15 µM | 2.02 | 4.66 µM | 4.64 | 2.06 | 4.83 µM | 1.83 | 4.67 µM | 3.48 | 1.85 | 5.53 µM | 1.8 | 3.34 µM | 1.24 | 4.01 µM | 3.79 | 0.768 | 1.94 | 1.98 |
| CCN(CC)CCC(CNc1ccnc2cc(Cl)ccc12)c1ccccc1 (stereo unspecified) | 43 | 15.4 µM | 11.3 | 41.1 µM | 3.88 | 1.86 | 3.36 µM | 1.71 | 3.19 µM | 6.6 | 1.92 | 3.45 µM | 2.3 | 5.65 µM | 3.51 | 20.8 µM | 11.5 | 2.8 | 2.05 | 2.09 |
| COc1cc(/C=C/C(=O)N2CCC=CC2=O)cc(OC)c1OC | 43.6 | 4.13 µM | 2.41 | 6.55 µM | 3.97 | 2.23 | 5.37 µM | 1.92 | 4.41 µM | 3.56 | 2.21 | 5.53 µM | 1.73 | 4.07 µM | 1.83 | 5.01 µM | 5.36 | 1.8 | 1.97 | 1.77 |
